# Results: patent US20090010880A1 (priority 2007, published 2009)
# Like-named read-outs stand apart in the source and are kept apart here.
# Tests used:
# DV (Dengue Virus) [1] = test: Cytopathic Effect Assay (CPEA), Dengue virus in BHK cells; format: cell-based
# [2] = system: BVDV (Bovine Viral Diarrhea Virus); test: microbe, parasite or virus in culture; format: cell-based; details: for inhibition of virus yield: 6-25 μg/ml, 24 and 48 hours post infection
# viral protein NS3 = test: Western blot analysis of viral NS3 protein; format: cell-based, Bovine Viral Diarrhea Virus; details: 25 μg/ml, 24 hours post infection, MOI of 10
# Description: MDBK cells were infected with NADL strain of BVDV (MOI 10) in the presence or absence of 25 μg/ml of geneticin. Based on previous publications, the 18-24 h post-infection time point was chosen to determine viral proteins in infected cells. […] Thus, at 24 h post-infection, cell media was removed and cells were washed several times with PBS. Then, 2× concentrated electrophoresis sample buffer was added, cells were scraped from the dish and transferred to a microcentrifuge tube. To reduce viscosity, the samples were sonicated briefly or passed several times through a 26-gauge needle and boiled for 5 min. Fifteen micrograms of lysate sample were run on 10% SDS-PAGE and then transblotted. After blocking for 1 h in blocking buffer (5% dry milk in 0.05% Tween 20 in PBS), membranes were incubated with primary antibody (MAb 20.10.6) diluted 1:1,000 in blocking buffer for 60 min at room temperature and washed with 0.05% Tween 20 in PBS. After incubation with secondary antibody (anti-mouse IgG-HRP; Sigma) diluted 1:200 in blocking buffer for 60 min at room temperature, NS3 was detected with the Amersham ECL kit according to the manufacturer's instructions (Amersham Biosciences, Piscataway, N.J., USA).
# YFV (Yellow Fever Virus) [3] = test: microbe, parasite or virus in culture; format: cell-based; details: read-out: CPEA EC50
# [4] = Cytotoxicity (CC50) in BHK cells; format: cell-based; details: hamster
# [5] = Cytotoxicity / cell viability in MDBK cells; format: cell-based, Bovine; details: bovine, MDBK cells
# [6] = system: MDBK (Madin-Darby Bovine Kidney) cells; test: Cytotoxicity / cell viability in MDBK cells; format: cell-based
# [7] = system: BVDV (Bovine Viral Diarrhea Virus); test: Cytopathic Effect Assay (CPEA), BVDV in BND cells; format: cell-based; details: Bovine viral diarrhea virus isolates and strains
# [8] = Cytotoxicity (CC50) in BND cells; format: cell-based, Bottle Nose Dolphin; details: bottlenose dolphin, BND skin cells
# DV (Dengue Virus) [9] = test: Yield Reduction Assay (YRA), Dengue virus in BHK cells; format: cell-based
# YFV (Yellow Fever Virus) [10] = test: microbe, parasite or virus in culture; format: cell-based; details: read-out: YRA EC50
# [11] = system: BVDV (Bovine Viral Diarrhea Virus); test: Cytopathic Effect Assay (CPEA) / cell viability, BVDV in MDBK cells; details: for EC50: Bovine viral diarrhea virus isolates and strains, MDBK
# BVDV = test: Antiviral activity against BVDV (structure-function analysis); format: cell-based, Bovine Viral Diarrhea Virus
compound,measurement,setting,value
CN[C@@H]1[C@@H](O)[C@@H](O[C@@H]2[C@@H](O)[C@H](O[C@H]3O[C@H]([C@@H](C)O)[C@@H](O)[C@H](O)[C@H]3N)[C@@H](N)C[C@H]2N)OC[C@]1(C)O [Geneticin],EC50,DV (Dengue Virus) [1],4 µg/mL
same,viral production,[2],below 10 % of control
same,EC50,"[2]; Bovine viral diarrhea virus isolates and strains, MDBK, BVDV, MDBK cells, read-out: YRA EC50",~4 µg/mL
same,inhibition of virus yield,[2]; NADL strain,10-100 fold
same,inhibition of virus yield,[2]; NY-1 strain,10-100 fold
same,synthesis of the viral protein NS3,viral protein NS3,no effect
same,EC50,YFV (Yellow Fever Virus) [3],20 µg/mL
same,CC50,[4],160 µg/mL
same,CC50,[5],400 µg/mL
same,MDBK cell viability (uninfected),"[6]; 31-250 μg/ml, 72 hours",no effect
same,concentration with cell toxicity (downward curve of cell viability),[6]; high doses,above 400 μg/ml
same,EC50,[7],50 µg/mL
same,CC50,[8],> 2000 µg/mL
same,EC50,DV (Dengue Virus) [9],5 µg/mL
same,EC50,YFV (Yellow Fever Virus) [10],10 µg/mL
same,EC50,"[11]; read-out: CPEA EC50, BVDV, MDBK cells",~4 µg/mL
same,EC50,"[11]; read-out: EC50 concentration for antiBVDV activity, BVDV",4 µg/mL
CC(=O)O[C@H]1C[C@@]2(C)[C@@H](C[C@@H](O)[C@H]3[C@@]4(C)CC[C@@H](O)[C@@H](C)[C@@H]4CC[C@@]32C)/C1=C(\CCC=C(C)C)C(=O)O [fusidic acid],antiviral activity against BVDV,BVDV,inactive
NC[C@@H]1O[C@H](O[C@H]2[C@@H](O)[C@H](O[C@@H]3[C@@H](O)[C@H](N)C[C@H](N)[C@H]3O[C@H]3O[C@H](CO)[C@@H](O)[C@H](O)[C@H]3N)O[C@@H]2CO)[C@H](N)[C@@H](O)[C@@H]1O [paromomycin],antiviral activity against BVDV,BVDV,no antiviral activity
gentamicin,cell viability of cpBVDV-infected cells (cytoprotection against NADL),"[11]; NADL, MDBK cells, 12 μg/ml per drug",decreased the cell viability
